The values below come from US20080145858A1, “DETECTION AND IDENTIFICATION OF TOXICANTS BY MEASUREMENT OF GENE […]” (priority 2003, published 2008).

The structures appear in SMILES notation.

The test system of the data set is Xenopus laevis embryos. Nature of the data set: Embryonic morphology after PMA treatment. To be noted: added 21 hours after fertilization, 18° C. for 30 hours; untreated showed typical neurula. It is filed as in vivo. As to the method: Embryos were sorted for successful cleavage to 2 cells (1.5 hours after fertilization), split into groups for subsequent treatment (triplicate treatments per each experimental group) and visually monitored for normal embryonic morphology. Rates of abnormal morphology were recorded for each group. Embryos at stage 8 were obtained after incubation of the fertilized embryos at 23° C. for 5 hours. PMA (100 ng/ml) or DMSO (0.01%, solvent used to dissolve PMA) was added to the embryos 2 hours after fertilization. […] Embryos at stage 15 were obtained after incubation of the fertilized embryos at 18° C. for 30 hours (the condition produced stage 15 embryos identical to embryos obtained at 23° C. for 10 hours). PMA or DMSO was added to the embryos 21 hours after fertilization.

Take `CCCCCCCCCCCCCC(=O)O[C@@H]1[C@@H](C)[C@@]2(O)[C@@H](C=C(CO)C[C@@]3(O)C(=O)C(C)=C[C@@H]23)[C@@H]2C(C)(C)[C@]12OC(C)=O` [4 alpha-PMA]: the “embryo morphology / developmental stage reached” value is recorded as “typical neurula morphology”.
